{"source": "patent US12227747B2", "about": "“Composition comprising aptamer as active ingredient for treatment and prevention of degenerative brain disease” (Nexmos Co., LTD, priority 2018, dated 2025)", "key": {"[1]": {"assay": "Fluorescence-based microplate assay (OPDA) of ascorbic acid oxidation", "format": "physicochemical", "source_text": "(§1) FIGS. 4-5 is a diagram showing a fluorescence-based microplate assay that inhibits ascorbic acid oxidation, and FIG. 4 is an experimental result using OPDA, a substance that becomes fluorescent by binding to DHA. […] FIG. 5 is a comparison of the antioxidant activity of remaining ascorbic acid using DCPIP after AptaminC3T31+ascorbic acid and ascorbic acid were left for 8 weeks under the same conditions. AptaminC3T31+ascorbic acid maintained 50% antioxidant activity even after 8 weeks,\nThe oxidation of ascorbic acid was measured in reverse with detecting the oxidized product dehydroascorbic acid (DHA) with modifying a method described in Vislisel et al. (Vislisel, J. M. Schafer, F. O. and Buettner, G. R. (2007) Analytical biochemistry, 365, 31-39).\nBriefly, aptamers were incubated with AA (10.3 μM) at 4× concentration for 30 minutes at room temperature before addition of 25 μM H2O2 (Sigma). Before the addition of OPDA dye (Sigma), the oxidizing agent sample was added and incubated at room temperature for 10 minutes. Immediately after addition of the dye (954.6 μM) sample, and read at excitation 345 nm; emission: 425 nm with a SpectraMax® plate reader (Molecular Devices) for 45 minutes at intervals of 60 seconds until the control converges. […] All fluorescence assays were performed in black 384-well plates (greiner bio-one). […]"}, "[2]": {"assay": "Storage of vitamin C with aptamer at room temperature for 8 weeks, reducing activity by DCPIP", "format": "physicochemical", "conditions": "FIG. 5", "source_text": "as §1\nThe aptamin C of the present invention was maintained at room temperature for 8 weeks and the reducing activity of ascorbic acid was measured using DCPIP (2,6-Dichlorophenolindophenol)."}, "[3]": {"assay": "ITC (Isothermal Titration calorimetry) of the aptamer binding to ascorbic acid", "conditions": "FIG. 7, read-out: binding affinity between the aptamer and ascorbic acid"}}, "data": [{"substance": "AptaminC3T31: DNA aptamer binding vitamin C (ascorbic acid); SEQ ID NO: 1, GTGGAGGCGGTGGCCAGTCTCGCGGTGGCGGC (DNA GTGGAGGCGGTGGCCAGTCTCGCGGTGGCGGC; listed as DNA, chemistry not given here)", "values": [{"measurement": "oxidation of ascorbic acid (DHA detected with OPDA fluorescence)", "setting": "[1]; ascorbic acid treated with hydrogen peroxide, FIG. 4", "value": "oxidation of ascorbic acid is prevented"}, {"measurement": "ability to protect AA from oxidation", "setting": "[1]; screen of top 20 candidate aptamers from SELEX", "value": "best effect"}, {"measurement": "increase of shelf life compared to ascorbic acid alone", "setting": "[2]", "value": "≥ 4", "unit": "times"}, {"measurement": "Kd", "setting": "[3]", "value": 900, "unit": "nM"}]}]}
